# Values quoted from earlier work, collected in patent US6485736B1, “Variable release microcapsules” (priority 2000, dated 2002).
# Conditions: water at 25° C.
smiles,measurement,value
II,solubility,0.335 g in 1 dm^3 of water
